Read-outs that look alike come from different tables or passages of the source.
Columns and labels:
P. expansum [1] = test system: P. expansum; design: reduction of lesion diameters: concentration or dose not given beside the values; settings: cited from earlier work; for reduction of lesion diameters: apples Golden Delicious, 16° C. in the dark; for patulin accumulation in apples: in vivo, lesions analyzed by HPLC after 14 days
[2] = test system: dihydrotlavonol 4-reductase (DFR); settings: grape cell cultures, addition of compound; cited from earlier work
[3] = test system: polar transport of indol-3yl-acetic acid; settings: 4-6 h; stimulation of basipetal, inhibition of acropetal transport; cited from earlier work
white potato tissue = settings: biphasic, dose dependent; cited from earlier work
cut seed potatoes = settings: cited from earlier work
[4] = test system: cyp705a5 mutant phenotype; settings: 15 μM in the growth medium; cited from earlier work
[5] = test system: Barley (Hordeumvulgare L.) seeds; settings: cited from earlier work
P. expansum [6] = settings: in vitro, agarized apple juice medium; cited from earlier work
[7] = test system: vacuolar membrane (H+-ATPase and H+-pyrophosphatase), slow vacuolar (SV) channel; settings: cited from earlier work
Fusarium = settings: about 0.60 to 0.70 mg per 100 g dry weight accumulated in the testa of ant18 mutants
cress seedlings = settings: biphasic, dose dependent; cited from earlier work
[8] = low-grade seeds soaked in aqueous 10^-4 M

SMILES | reduction of lesion diameters (P. expansum [1]; after 6 days of incubation) [%] | reduction of lesion diameters (P. expansum [1]; after 10 days of incubation) [%] | reduction of lesion diameters (P. expansum [1]; after 14 days of incubation) [%] | patulin accumulation in apples (P. expansum [1]) | polarity of the transport of indol-3yl-acetic acid [3] | fungal growth (P. expansum [6]) | reduction of patulin accumulation (P. expansum [6]) [%] | further results
O=C1c2c(O)cc(O)cc2OC(c2ccc(O)c(O)c2)C1O (stereo not drawn) [Dihydroquercetin (taxifolin)] | 97 | 71 | 27 | no reduction | increased | no inhibition | 48 | increase in dihydrotlavonol 4-reductase (DFR) activity [2]: 10 fold; oxygen consumption of white potato tissue (white potato tissue): stimulated; fungal mold growth on treated seed pieces (cut seed potatoes; incubated in a controlled environment): adequately retarded; thickness of the suberized layer formed below the cut surface (cut seed potatoes; treated seed potato tissue): increases; phenotype restored, of the wild type gravity response [4]: ≥ 100%; activity of ascorbate peroxidase (AsP) ([5]; (+DHQ)-plants): increased more significantly; ratio between TBARs content and AsP activity ([5]; leaves, optimal soil conditions and flooding): lower; germination rate in comparison with the same seeds soaked in water [5, 8]: twofold; mold on seeds [5, 8]: no mold; root growth ([5]; seedlings from pretreated seeds vs non-pretreated): higher; shoot growth ([5]; seedlings from similarly germinated seeds, with vs without pretreatment): did not differ; TBARs content ([5]; soil flooding, roots and leaves, (+DHQ) vs (-DHQ) seedlings): lower; active and passive transport systems of the vacuolar membrane [7]: affected; effect on the membranes of isolated vacuoles ([7]; isolated vacuoles): strong stabilizing effect; resistance of seeds to Fusarium infection (Fusarium): extraordinary resistance; root growth of cress seedlings (cress seedlings): increased
COc1cc(/C=C/C(=O)O)ccc1O [ferulic acid] | – | – | – | – | increased | – | – | –
O=c1c(O)c(-c2ccc(O)cc2O)oc2cc(O)cc(O)c12 [morin] | – | – | – | – | increased | – | – | –
C[C@@H]1O[C@@H](O[C@H]2[C@H](Oc3cc(O)c4c(c3)O[C@H](c3ccc(O)cc3)CC4=O)O[C@H](CO)[C@@H](O)[C@@H]2O)[C@H](O)[C@H](O)[C@H]1O [naringin] | – | – | – | – | increased | – | – | –
O=C1/C(=C/c2ccc(O)c(O)c2)Oc2cc(O)ccc21 [sulfuretin] | – | – | – | – | increased | – | – | –
O=c1ccc2ccc(O)cc2o1 [umbelliferone, reference compound] | 100 | 68 | 38 | no reduction | – | no inhibition | 53 | –

Reference: patent US20140335210A1, “METHOD AND AGROCHEMICAL COMPOSITION FOR USING LARCH WOOD EXTRACTS IN AGRICULTURE” (FLAVITPURE, INC., priority 2013, published 2014)
